Results reported in the NIST ThermoML archive (doi:10.1021/je300148f).

Conditions: Liquid, isochoric method

CCC [propane]
Conditions	mass density [kg/m3]
207.35 K, 1466.9 kPa	609.37
208.31 K, 2745.8 kPa	609.32
209.06 K, 3635.6 kPa	609.28
209.75 K, 4364.7 kPa	609.25
215.17 K, 10724 kPa	608.98
222.43 K, 1045.6 kPa	592.03
222.75 K, 19646 kPa	608.63
223.37 K, 2016.7 kPa	591.98
224.52 K, 3087.1 kPa	591.93
225.47 K, 4153.8 kPa	591.89
226.91 K, 5632.5 kPa	591.82
231.06 K, 30008 kPa	608.23
231.07 K, 10051 kPa	591.62
239.51 K, 39217 kPa	607.87
240.49 K, 1194 kPa	571.45
240.67 K, 19671 kPa	591.21
240.92 K, 1528.8 kPa	571.44
242.87 K, 3265.5 kPa	571.39
244.55 K, 4758.9 kPa	571.35
245.44 K, 5554 kPa	571.33
250.1 K, 9711.4 kPa	571.2
250.12 K, 29984 kPa	590.79
251.11 K, 51133 kPa	607.38
259.96 K, 1060.8 kPa	547.54
261.06 K, 19770 kPa	571.13
261.18 K, 40016 kPa	590.35
261.19 K, 1975 kPa	547.51
262.52 K, 2951.9 kPa	547.48
262.52 K, 3059.7 kPa	547.47
263.78 K, 4004 kPa	547.44
265.28 K, 5120.2 kPa	547.4
266.44 K, 5840.1 kPa	547.37
267.87 K, 6954.7 kPa	547.34
270.11 K, 49092 kPa	589.98
270.22 K, 1044.7 kPa	533.77
271.68 K, 2041.5 kPa	533.71
272.12 K, 10829 kPa	547.66
272.12 K, 30057 kPa	570.94
272.13 K, 10235 kPa	547.22
273.11 K, 3025.3 kPa	533.66
274.51 K, 3979.1 kPa	533.61
276.2 K, 5186.1 kPa	533.54
283.08 K, 995.2 kPa	515.52
283.43 K, 38987 kPa	570.26
283.64 K, 10260 kPa	533.26
284.77 K, 2002.1 kPa	515.46
284.98 K, 19876 kPa	546.88
286.56 K, 3090.5 kPa	515.39
288.23 K, 4086.1 kPa	515.33
289.9 K, 5086.2 kPa	515.27
295.92 K, 49573 kPa	569.78
297.68 K, 1075 kPa	493.21
298.14 K, 10031 kPa	514.99
298.15 K, 10038 kPa	514.99
298.15 K, 19981 kPa	532.71
298.15 K, 30027 kPa	546.51
298.15 K, 30100 kPa	546.7
298.18 K, 19921 kPa	532.75
298.19 K, 20084 kPa	532.74
299.62 K, 2037.9 kPa	493.14
301.57 K, 3036.9 kPa	493.08
303.56 K, 4053.8 kPa	493.01
305.53 K, 5060.2 kPa	492.95
311.44 K, 39238 kPa	545.97
313.68 K, 30193 kPa	532.17
315.23 K, 2005.2 kPa	466.11
315.23 K, 9905.5 kPa	492.64
315.23 K, 10017 kPa	492.63
315.23 K, 19842 kPa	514.41
317.42 K, 2930.2 kPa	466.04
319.89 K, 3981.7 kPa	465.97
322.25 K, 4976.5 kPa	465.9
332.01 K, 29682 kPa	513.86
333.97 K, 19538 kPa	492.04
334.14 K, 9861.6 kPa	465.55
344.57 K, 49972 kPa	531.11
353.14 K, 29253 kPa	491.45
353.14 K, 42004 kPa	513.17
353.15 K, 17921 kPa	464.99
